From PubChem BioAssay (NCI)
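Growth conditions: 96-well plates. Treatment: test compound, 48 hours, 5 concentrations. Analysis: linear interpolation between bracketing concentrations; unreached endpoints set to highest concentration. TGI: total growth inhibition.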

What was measured:
Experiment in all cases: growth of human tumour cells (NCI), 48 h
SF-295 CNS = tested on: SF-295 CNS
SK-OV-3 ovarian = tested on: SK-OV-3 ovarian
MDA-MB-435 = tested on: MDA-MB-435
SR leukemia = tested on: SR leukemia
OVCAR-4 ovarian = tested on: OVCAR-4 ovarian
K-562 leukemia = tested on: K-562 leukemia
SK-MEL-28 melanoma = tested on: SK-MEL-28 melanoma
HS 578T breast = tested on: HS 578T breast
NCI-H460 lung = tested on: NCI-H460 lung
MCF7 breast = tested on: MCF7 breast
IGROV1 ovarian = tested on: IGROV1 ovarian
OVCAR-8 ovarian = tested on: OVCAR-8 ovarian
COLO 205 colon = tested on: COLO 205 colon
DU-145 prostate = tested on: DU-145 prostate
MALME-3M melanoma = tested on: MALME-3M melanoma
TK-10 renal = tested on: TK-10 renal
A549 NSCLC = tested on: A549 NSCLC
MDA-N = tested on: MDA-N
MDA-MB-231 breast = tested on: MDA-MB-231 breast
ACHN renal = tested on: ACHN renal
M14 melanoma = tested on: M14 melanoma
LOX IMVI melanoma = tested on: LOX IMVI melanoma
MOLT-4 leukemia = tested on: MOLT-4 leukemia
OVCAR-5 ovarian = tested on: OVCAR-5 ovarian
CAKI-1 renal = tested on: CAKI-1 renal
SN12C renal = tested on: SN12C renal
SK-MEL-2 melanoma = tested on: SK-MEL-2 melanoma
UO-31 renal = tested on: UO-31 renal
HCT-116 colon = tested on: HCT-116 colon
HOP-92 NSCLC = tested on: HOP-92 NSCLC
RXF 393 renal = tested on: RXF 393 renal
KM12 colon = tested on: KM12 colon
UACC-62 melanoma = tested on: UACC-62 melanoma
NCI-H23 lung = tested on: NCI-H23 lung
SF-539 CNS = tested on: SF-539 CNS
HOP-62 NSCLC = tested on: HOP-62 NSCLC
SF-268 CNS = tested on: SF-268 CNS
OVCAR-3 ovarian = tested on: OVCAR-3 ovarian
RPMI-8226 leukemia = tested on: RPMI-8226 leukemia
HT29 colon = tested on: HT29 colon
SW-620 colon = tested on: SW-620 colon
SNB-19 CNS = tested on: SNB-19 CNS
HL-60(TB) leukemia = tested on: HL-60(TB) leukemia
UACC-257 melanoma = tested on: UACC-257 melanoma
A498 renal = tested on: A498 renal
PC-3 prostate = tested on: PC-3 prostate
U251 CNS = tested on: U251 CNS
BT-549 breast = tested on: BT-549 breast
NCI-H226 lung = tested on: NCI-H226 lung
NCI-H522 lung = tested on: NCI-H522 lung
EKVX NSCLC = tested on: EKVX NSCLC
SK-MEL-5 melanoma = tested on: SK-MEL-5 melanoma
CCRF-CEM leukemia = tested on: CCRF-CEM leukemia
HCC-2998 colon = tested on: HCC-2998 colon
T-47D breast = tested on: T-47D breast
NCI/ADR-RES ovarian = tested on: NCI/ADR-RES ovarian
786-0 renal = tested on: 786-0 renal
SNB-75 CNS = tested on: SNB-75 CNS
HCT-15 colon = tested on: HCT-15 colon

CCOC(=O)c1sc2nc(SC)nc3c2c1NC(=O)CN3c1cccc(F)c1
TGI (SF-295 CNS): 40.2 µM | TGI (SK-OV-3 ovarian): 37.4 µM | TGI (MDA-MB-435): > 100 µM | TGI (SR leukemia): > 100 µM | TGI (OVCAR-4 ovarian): 42 µM | TGI (K-562 leukemia): 93.3 µM | TGI (SK-MEL-28 melanoma): 22.9 µM | TGI (HS 578T breast): 59.7 µM | TGI (NCI-H460 lung): > 100 µM | TGI (MCF7 breast): > 100 µM | TGI (IGROV1 ovarian): > 100 µM | TGI (OVCAR-8 ovarian): 30.6 µM | TGI (COLO 205 colon): > 100 µM | TGI (DU-145 prostate): 52.7 µM | TGI (MALME-3M melanoma): > 100 µM | TGI (TK-10 renal): 86.8 µM | TGI (A549 NSCLC): 28 µM | TGI (MDA-N): > 100 µM | TGI (MDA-MB-231 breast): 41.3 µM | TGI (ACHN renal): 27.3 µM | TGI (M14 melanoma): 50 µM | TGI (LOX IMVI melanoma): 38.8 µM | TGI (MOLT-4 leukemia): 67.7 µM | TGI (OVCAR-5 ovarian): > 100 µM | TGI (CAKI-1 renal): > 100 µM | TGI (SN12C renal): 35.5 µM | TGI (SK-MEL-2 melanoma): 67.6 µM | TGI (UO-31 renal): 35.1 µM | TGI (HCT-116 colon): 53 µM | TGI (HOP-92 NSCLC): 55.6 µM | TGI (RXF 393 renal): 32 µM | TGI (KM12 colon): > 100 µM | TGI (UACC-62 melanoma): > 100 µM | TGI (NCI-H23 lung): > 100 µM | TGI (SF-539 CNS): 15.7 µM | TGI (HOP-62 NSCLC): 28.3 µM | TGI (SF-268 CNS): 28.1 µM | TGI (OVCAR-3 ovarian): 43.9 µM | TGI (RPMI-8226 leukemia): 46.8 µM | TGI (HT29 colon): > 100 µM | TGI (SW-620 colon): > 100 µM | TGI (SNB-19 CNS): 47.9 µM | TGI (HL-60(TB) leukemia): 24.4 µM | TGI (UACC-257 melanoma): > 100 µM | TGI (A498 renal): 43.1 µM | TGI (PC-3 prostate): 34.4 µM | TGI (U251 CNS): 31.9 µM | TGI (BT-549 breast): 21.3 µM | TGI (NCI-H226 lung): 31.7 µM | TGI (NCI-H522 lung): > 100 µM | TGI (EKVX NSCLC): > 100 µM | TGI (SK-MEL-5 melanoma): > 100 µM

O=C1/C(=C\c2cccc(Oc3ccccc3)c2)S(=O)(=O)C(c2ccccc2)N1c1ccccc1Cl (centres undefined)
TGI (SF-295 CNS): > 100 µM | TGI (SK-OV-3 ovarian): > 100 µM | TGI (MDA-MB-435): 87 µM | TGI (SR leukemia): 62.4 µM | TGI (OVCAR-4 ovarian): 98.1 µM | TGI (K-562 leukemia): 64.2 µM | TGI (SK-MEL-28 melanoma): > 100 µM | TGI (NCI-H460 lung): > 100 µM | TGI (MCF7 breast): > 100 µM | TGI (IGROV1 ovarian): > 100 µM | TGI (CCRF-CEM leukemia): 51.2 µM | TGI (OVCAR-8 ovarian): > 100 µM | TGI (COLO 205 colon): 33.5 µM | TGI (HCC-2998 colon): > 100 µM | TGI (DU-145 prostate): > 100 µM | TGI (MALME-3M melanoma): > 100 µM | TGI (TK-10 renal): > 100 µM | TGI (A549 NSCLC): > 100 µM | TGI (T-47D breast): > 100 µM | TGI (MDA-N): 50.2 µM | TGI (MDA-MB-231 breast): > 100 µM | TGI (ACHN renal): > 100 µM | TGI (NCI/ADR-RES ovarian): > 100 µM | TGI (M14 melanoma): 89.1 µM | TGI (LOX IMVI melanoma): > 100 µM | TGI (MOLT-4 leukemia): 48.9 µM | TGI (OVCAR-5 ovarian): > 100 µM | TGI (CAKI-1 renal): > 100 µM | TGI (SN12C renal): 72 µM | TGI (SK-MEL-2 melanoma): > 100 µM | TGI (UO-31 renal): > 100 µM | TGI (HCT-116 colon): 39.2 µM | TGI (HOP-92 NSCLC): 73.5 µM | TGI (RXF 393 renal): > 100 µM | TGI (786-0 renal): > 100 µM | TGI (KM12 colon): > 100 µM | TGI (UACC-62 melanoma): 94.8 µM | TGI (NCI-H23 lung): > 100 µM | TGI (SF-539 CNS): 34.3 µM | TGI (HOP-62 NSCLC): > 100 µM | TGI (SNB-75 CNS): 74.5 µM | TGI (OVCAR-3 ovarian): 64.3 µM | TGI (RPMI-8226 leukemia): 56.8 µM | TGI (HT29 colon): 70.3 µM | TGI (SW-620 colon): > 100 µM | TGI (SNB-19 CNS): 64 µM | TGI (HL-60(TB) leukemia): 33.6 µM | TGI (UACC-257 melanoma): > 100 µM | TGI (A498 renal): > 100 µM | TGI (PC-3 prostate): > 100 µM | TGI (U251 CNS): > 100 µM | TGI (BT-549 breast): > 100 µM | TGI (NCI-H226 lung): > 100 µM | TGI (HCT-15 colon): > 100 µM | TGI (NCI-H522 lung): 49.1 µM | TGI (EKVX NSCLC): 92.2 µM | TGI (SK-MEL-5 melanoma): 32 µM
